Data reported in patent US4895846A, “Pharmaceutically useful dihydropyridinyldicarboxylate amides and esters incorporating arylpiperazinylalkyl moieties” (Bristol-Myers Company, priority 1987, dated 1990).
≈ marks a conversion by molar mass, not a printed value.

Experiments:
[1] = tested on: blood platelets in platelet rich plasma; test: Collagen aggregation of blood platelets in platelet rich plasma; type: cell-based; details: Oryctolagus cuniculus; platelet rich plasma (rabbit)
[2] = tested on: normotensive and spontaneously hypertensive conscious rats; test: Oral administration to normotensive and spontaneously hypertensive conscious rats, mean arterial blood pressure; type: in vivo, rat; details: for maximal mean arterial blood pressure reduction: oral
Procedure: In vivo testing included vasodilating results in the ganglion-blocked, angiotensin-II supported rat and antihypertensive screening in either the spontaneous hypertensive rat (SHR) or DOCA salt rats. In general, vasodilating activity paralleled calcium blocking activity for members of the instant series. […] A most preferred compound, BMY 20064 [drawing 21] was administered orally to both normotensive and spontaneously hypertensive conscious rats. Doses of 1 and 10 mg/kg elicited maximal mean arterial blood pressure reductions of 25 and 53 mmHg, respectively, in the normotensive rat group and 34 and 100 mmHg, respectively, in the spontaneously hypertensive rat group.

| SMILES | EC50 [1] | onset of mean arterial blood pressure response ([2]; both groups (normotensive and SHR), oral 1 and 10 mg/kg) | persistence of mean arterial blood pressure response ([2]; both groups, after the higher dose (10 mg/kg oral)) | maximal mean arterial blood pressure reduction ([2]; normotensive conscious rats, 1 mg/kg) | maximal mean arterial blood pressure reduction ([2]; normotensive conscious rats, 10 mg/kg) | maximal mean arterial blood pressure reduction ([2]; spontaneously hypertensive conscious rats, 1 mg/kg) | maximal mean arterial blood pressure reduction ([2]; spontaneously hypertensive conscious rats, 10 mg/kg) |
| --- | --- | --- | --- | --- | --- | --- | --- |
| COC(=O)C1=C(C)NC(C)=C(C(=O)OCCCN2CCN(c3ccccc3OC)CC2)C1c1cccc([N+](=O)[O-])c1 (stereo not drawn) [BMY 20064] | 11 µg/mL (≈ 19.5 µM) | < 10 min | > 4 h | 25 mmHg | 53 mmHg | 34 mmHg | 100 mmHg |
| COC(=O)C1=C(C)NC(C)=C(C(=O)OC)C1c1ccccc1[N+](=O)[O-] [Nifedipine, 4-(2'-nitrophenyl)-2,6-dimethyl-3,5-dicarbomethoxy-1,4-dihydropyridine] | 176 µg/mL (≈ 508 µM) |  |  |  |  |  |  |
| COc1ccc(CCN(C)CCCC(C#N)(c2ccc(OC)c(OC)c2)C(C)C)cc1OC (stereo not drawn) [Verapamil] | 151 µg/mL (≈ 332 µM) |  |  |  |  |  |  |
